{
  "source": "paper PMC3038857",
  "about": "“Using Nuclear Receptor Activity to Stratify Hepatocarcinogens” (PLoS ONE, 2011)",
  "origin": "cited, not measured here",
  "conditions_in_all_cases": "ref ToxRefDB, cited from earlier work",
  "key": {"Mouse Liver [1]": {"tested_on": "Mouse Liver"}, "Mouse Liver [2]": {"tested_on": "Mouse Liver", "remark": "listed apart in the source"}, "Rat Liver [3]": {"tested_on": "Rat Liver"}, "Mouse Liver [4]": {"tested_on": "Mouse Liver", "remark": "listed apart in the source"}, "Rat Liver [5]": {"tested_on": "Rat Liver", "remark": "listed apart in the source"}, "Rat Liver [6]": {"tested_on": "Rat Liver", "remark": "listed apart in the source"}, "[7]": {"conditions": "mouse chronic study, liver, coded 6 / Inf, code not explained in table"}, "[8]": {"conditions": "rat chronic study, liver, coded 6 / 0, code not explained in table"}, "[9]": {"conditions": "mouse chronic study, liver, any lesion, coded 6 / Inf, code not explained in the table"}, "[10]": {"conditions": "mouse chronic study, liver, preneoplastic lesion, coded 6 / Inf, code not explained in the table"}, "[11]": {"conditions": "mouse chronic study, liver, neoplastic lesion, coded 6 / Inf, code not explained in the table"}},
  "note": "Like-named read-outs stand apart in the source and are kept apart here.",
  "data": [
    {"molecule": "CC1=NNC(=O)N(/N=C/c2cccnc2)C1", "note": "[r269]", "values": [
      {"measurement": "CHR_Mouse_Liver_1_AnyLesion", "setting": "Mouse Liver [1]; chronic study, mouse liver", "value": 6},
      {"measurement": "CHR_Mouse_Liver_2_PreneoplasticLesion", "setting": "Mouse Liver [2]; chronic study, mouse liver", "value": 6},
      {"measurement": "CHR_Rat_Liver_1_AnyLesion", "setting": "Rat Liver [3]; chronic study, rat liver", "value": 6},
      {"measurement": "CHR_Mouse_Liver_3_NeoplasticLesion", "setting": "Mouse Liver [4]; chronic study, mouse liver", "value": 6},
      {"measurement": "CHR_Rat_Liver_3_NeoplasticLesion", "setting": "Rat Liver [5]; chronic study, rat liver", "value": 6},
      {"measurement": "CHR_Rat_Liver_2_PreneoplasticLesion", "setting": "Rat Liver [6]; chronic study, rat liver", "value": 6}
    ]},
    {"molecule": "COC(=O)NC(=S)Nc1ccccc1NC(=S)NC(=O)OC", "note": "[chemical 301]", "values": [
      {"measurement": "CHR_Mouse_Liver_1_AnyLesion", "setting": "Mouse Liver [1]; [7]", "value": 6},
      {"measurement": "CHR_Mouse_Liver_2_PreneoplasticLesion", "setting": "Mouse Liver [2]; [7]", "value": 6},
      {"measurement": "CHR_Mouse_Liver_3_NeoplasticLesion", "setting": "Mouse Liver [4]; [7]", "value": 6}
    ]},
    {"molecule": "COC(=O)c1cccc(C)c1S(=O)(=O)NC(=O)Nc1nc(OCC(F)(F)F)nc(N(C)C)n1", "note": "[chemical 317]", "values": [
      {"measurement": "CHR_Mouse_Liver_1_AnyLesion", "setting": "Mouse Liver [1]; [7]", "value": 6},
      {"measurement": "CHR_Mouse_Liver_2_PreneoplasticLesion", "setting": "Mouse Liver [2]; [7]", "value": 6},
      {"measurement": "CHR_Rat_Liver_1_AnyLesion", "setting": "Rat Liver [3]; [8]", "value": 0},
      {"measurement": "CHR_Mouse_Liver_3_NeoplasticLesion", "setting": "Mouse Liver [4]; [7]", "value": 6},
      {"measurement": "CHR_Rat_Liver_3_NeoplasticLesion", "setting": "Rat Liver [5]; [8]", "value": 0},
      {"measurement": "CHR_Rat_Liver_2_PreneoplasticLesion", "setting": "Rat Liver [6]; [8]", "value": 0}
    ]},
    {"molecule": "CC(C)(C)C(O)C(Oc1ccc(Cl)cc1)n1cncn1", "note": "(stereo not drawn) [chemical 305]", "values": [
      {"measurement": "CHR_Mouse_Liver_1_AnyLesion", "setting": "Mouse Liver [1]; [7]", "value": 6},
      {"measurement": "CHR_Mouse_Liver_2_PreneoplasticLesion", "setting": "Mouse Liver [2]; [7]", "value": 6},
      {"measurement": "CHR_Rat_Liver_1_AnyLesion", "setting": "Rat Liver [3]; [8]", "value": 0},
      {"measurement": "CHR_Mouse_Liver_3_NeoplasticLesion", "setting": "Mouse Liver [4]; [7]", "value": 6},
      {"measurement": "CHR_Rat_Liver_3_NeoplasticLesion", "setting": "Rat Liver [5]; [8]", "value": 0},
      {"measurement": "CHR_Rat_Liver_2_PreneoplasticLesion", "setting": "Rat Liver [6]; [8]", "value": 0}
    ]},
    {"molecule": "CC(C)(C)C(=O)C(Oc1ccc(Cl)cc1)n1cncn1", "note": "(stereo not drawn) [chemical 304]", "values": [
      {"measurement": "CHR_Mouse_Liver_1_AnyLesion", "setting": "Mouse Liver [1]; [7]", "value": 6},
      {"measurement": "CHR_Mouse_Liver_2_PreneoplasticLesion", "setting": "Mouse Liver [2]; [7]", "value": 6},
      {"measurement": "CHR_Rat_Liver_1_AnyLesion", "setting": "Rat Liver [3]; [8]", "value": 6},
      {"measurement": "CHR_Mouse_Liver_3_NeoplasticLesion", "setting": "Mouse Liver [4]; [7]", "value": 6},
      {"measurement": "CHR_Rat_Liver_3_NeoplasticLesion", "setting": "Rat Liver [5]; [8]", "value": 0},
      {"measurement": "CHR_Rat_Liver_2_PreneoplasticLesion", "setting": "Rat Liver [6]; [8]", "value": 0}
    ]},
    {"molecule": "CCCCN(CC)c1c([N+](=O)[O-])cc(C(F)(F)F)cc1[N+](=O)[O-]", "note": "[Dataset S3 row 26]", "values": [
      {"measurement": "CHR_Mouse_Liver_1_AnyLesion", "setting": "Mouse Liver [1]; [9]", "value": 6},
      {"measurement": "CHR_Mouse_Liver_2_PreneoplasticLesion", "setting": "Mouse Liver [2]; [10]", "value": 6},
      {"measurement": "CHR_Mouse_Liver_3_NeoplasticLesion", "setting": "Mouse Liver [4]; [11]", "value": 6}
    ]},
    {"molecule": "Oc1ccccc1-c1ccccc1", "note": "[Dataset S3 row 5]", "values": [
      {"measurement": "CHR_Mouse_Liver_1_AnyLesion", "setting": "Mouse Liver [1]; [9]", "value": 6},
      {"measurement": "CHR_Mouse_Liver_2_PreneoplasticLesion", "setting": "Mouse Liver [2]; [10]", "value": 6},
      {"measurement": "CHR_Mouse_Liver_3_NeoplasticLesion", "setting": "Mouse Liver [4]; [11]", "value": 6}
    ]}
  ]
}
